System: YAC-1 target cells
Assay: NK cell cytotoxicity of PBMC- and spleen-derived NK cells (calcein AM)
Assay type: in vivo, rat
Method: After the end of the drug treatment period, the spleen tissues from control and drug-treated rats were processed, and RBCs and granulocytes were removed from splenocyte suspensions by density centrifugation using Histopaque 1083 (Sigma-Aldrich) as previously described (8). Splenocytes (˜10×10^7 cells per spleen) were extracted from the middle layer, washed with RPMI-1640 (Gibco), and resuspended in buffer (PBS, 0.5% BSA). Splenocytes were incubated with primary Abs conjugated to FITC (BD Biosciences), anti-CD6 (OX52; T cells), anti-CD45RA (OX-33; mature B cells), and anti-RT1B (OX-6; dendritic cells and macrophages), followed by secondary incubation with anti-FITC microbeads, according to the manufacturer's instructions (Miltenyi Biotec). NK cells were then enriched by magnetic separation (negative selection) using an AutoMACS Magnetic Separator (Miltenyi Biotec). The enriched fraction consistently yielded ˜5×10^6 cells per spleen with a purity of ˜80-90%. […] The pelleted cells (PBMC) were counted in a hemocytometer and assayed for viability by trypan blue exclusion. […]
The cytotoxicity of enriched NK cells from PBMC and the spleen against NK-sensitive YAC-1 (ATCC) target cells was determined by calcein AM assays as previously described (8). […] All assays were analyzed and percent cytotoxicity for each sample was calculated as previously described (8).

## CC(C)NCC(O)COc1cccc2ccccc12 (stereo not shown) [PRO, propranolol]
  NK cell cytolytic activity: elevated

Source: patent US20240390490A1, “PHARMACEUTICAL COMPOSITIONS FOR THE TREATMENT OF CANCERS” (Rutgers, The State University of New Jersey, priority 2021, published 2024)
